Experimental data: US20070167408A1, “NOVEL ALKYL PHOSPHOLIPID DERIVATIVES WITH REDUCED CYTOTOXICITY AND USES THEREOF” (ZENTARIS GmbH, priority 2005, published 2007)
Converted amounts (≈) assume the structure as drawn.

Columns and labels:
[1] = tested on: RKOp21 (human colon adenocarcinoma) cells; experiment: XTT cytotoxicity assay, RKOp21 cells; type: cell-based; settings: 31.6 μM, second set of experiments
Outline: (§1)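 Cells recovered 24 h after plating, then exposed to compounds for 48 h at 37 °C; one set used 10 semi-log concentrations from 100 μM, another 31.6 μM final for PC3 and RKOp21. XTT-PMS added for 3 h, formazan absorbance at 490 nm versus untreated cells; IC50 from inhibition curves.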

[2] = tested on: Moraxella catarrhalis DMS 11994 (ATCC 43617); experiment: Anti-bacterial bouillon microdilution assay (MIC), bacterium D; type: cell-based
Outline: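 Broth microdilution MIC per DIN 58940-5/-7. Twofold compound dilutions in water spanned 256 to 0.125 μg/ml in the test concentration series, with inocula of about 1×10^6 organisms/ml in strain-appropriate media. Growth was read as turbidity at 595 nm before and after incubation, against growth and sterile controls.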

[3] = tested on: Streptococcus pneumoniae DSM 20566 (ATCC 33400); experiment: Anti-bacterial bouillon microdilution assay (MIC), bacterium A; type: cell-based; settings: Streptococcus pneumoniae DSM 20566, 24 h
Description: (§2) Selected compounds of the invention were tested in a bouillon microdilution assay method according to the DIN 58940 (www.din.de) guidelines for determination of susceptibility of bacterial strains with regard to cell growth inhibition. The assay method quantifies bacterial cell growth which corresponds to the turbidity of the liquid culture medium by photometric measurement carried out at 595 nm.
(§3) The method of MIC determination was performed according to DIN 58940-5. The volumina were adapted according to the microdilution method as described in DIN 58940-7 guideline.
(§4) Dependent on water solubility, compounds of the invention were dissolved either in water or ethanol in a concentration of 10 mg/ml. Subsequently, the stock was further diluted in water to a concentration of 512 μg/ml. The following serial dilutions (factor 2) were performed in water resulting in the following […] testing concentrations: 256 μg/ml, 128 μg/ml, 64 μg/ml, 32 μg/ml, 16 μg/ml, 8 μg/ml, 4 μg/ml, 2 μg/ml, 1 μg/ml, 0.5 μg/ml, 0.25 μg/ml and 0.125 μg/ml. Diluted compounds of the invention were transferred in 100 μl volume to the microtiter plate wells.
(§5) Pre-cultures of bacteria were grown in appropriate liquid media (refer to ATCC webpage, www.atcc.org) and afterwards were inoculated in corresponding liquid medium. 100 μl of the inoculums [adjusted to an amount of app. 1×10^6 microorganisms per ml (range of 10^5-10^8 microorganisms per ml)] were added to each of the testing compound concentrations and cultivated under the appropriate conditions.
(§6) Before and after incubation, bacterial growth was determined by photometric analysis against a positive control containing growing bacteria without compound and a sterile/negative control containing only the medium.

[4] = tested on: PC3 (human prostate carcinoma) cells; experiment: XTT cytotoxicity assay, PC3 cells; type: cell-based; settings: 31.6 μM, second set of experiments
Outline: as §1

[5] = tested on: Streptococcus pneumoniae DSM 11967 (ATCC 49619); experiment: Anti-bacterial bouillon microdilution assay (MIC), bacterium B; type: cell-based; settings: Streptococcus pneumoniae DSM 11967, 24 h
Description: as §2, §3, §4, §5, §6

[6] = tested on: PC3, RKOp21 and SKOV-3 cell lines; experiment: XTT cytotoxicity assay, mean over all three cell lines; type: cell-based, human; settings: mean value over all three cell lines
Outline: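 Cells had 2 days of continuous compound exposure, then 3 h with XTT-PMS at 37 °C, 5% CO2 to form formazan from living cells. The value is % inhibition of cell growth, averaged over PC3, RKOp21 and SKOV-3.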

| SMILES | RKOp21 % INH [31.6 μM] [1] | MIC, bacterium D ([2]; 24 h) | MIC, bacterium A [3] | PC3 % INH [31.6 μM] [4] | MIC, bacterium B [5] | Mean % INH [6] | inhibition at 31.6 µM ([1]; Homo sapiens, read-out: RKOp21 % INH [31.6 μM]) | MIC ([2]; ATCC43617, 24 h) | MIC [3] | inhibition at 31.6 µM ([4]; Homo sapiens, PC-3, read-out: PC3 % INH [31.6 μM]) | MIC [5] |
| --- | --- | --- | --- | --- | --- | --- | --- | --- | --- | --- | --- |
| CCCCCCCCCCCCCCCCOP(=O)([O-])OCC[N+]1(C)CCCCC1 [Compound 2, Phosphoric acid hexadecyl ester 2-(1-methyl-piperidin-1-yl)-ethyl ester] | 38.8% | 4 µg/mL (≈ 8.94 µM) | 8 µg/mL (≈ 17.9 µM) | 50.1% | 8 µg/mL (≈ 17.9 µM) | 36.1% | – | – | – | – | – |
| CCCCCCCCCCCCCCCCOP(=O)([O-])OCC[N+](C)(C)C [miltefosine, hexadecylphosphocholine, reference compound] | – | – | – | – | – | 68.7% | 64% | 16 µg/mL (≈ 39.3 µM) | 128 µg/mL (≈ 314 µM) | 67.4% | 128 µg/mL (≈ 314 µM) |
